Measurements: the supplement of paper PMC10307832

Tests used:
Assay in all cases: relative viability (nuclei count vs DMSO), 5 days (fraction); higher = more cells survive
ChaGo-K-1 = test system: ChaGo-K-1
In short: (§1)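 Lung cancer cell lines were pin-tool dosed in 1536-well plates on the day after seeding, with either a lone drug or a fixed anchor-drug dose plus five library-drug doses (not always all listed) in √10 steps. Nuclei were counted on 4× images after 5 days. Relative viability is the ratio of treated-well to vehicle-well nuclei counts, with each value a median of duplicate plates.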

EKVX = test system: EKVX
In short: as §1

EMC-BAC-2 = test system: EMC-BAC-2
In short: as §1

EPLC-272H = test system: EPLC-272H
In short: as §1

H3255 = test system: H3255
In short: as §1

HARA = test system: HARA
In short: as §1

HCC-15 = test system: HCC-15
In short: as §1

HCC-827 = test system: HCC-827
In short: as §1

LC-2-ad = test system: LC-2-ad
In short: as §1

LCLC-103H = test system: LCLC-103H
In short: as §1

LK-2 = test system: LK-2
In short: as §1

NCI-H1648 = test system: NCI-H1648
In short: as §1

NCI-H1792 = test system: NCI-H1792
In short: as §1

NCI-H1793 = test system: NCI-H1793
In short: as §1

NCI-H1944 = test system: NCI-H1944
In short: as §1

NCI-H2170 = test system: NCI-H2170
In short: as §1

NCI-H23 = test system: NCI-H23
In short: as §1

NCI-H2405 = test system: NCI-H2405
In short: as §1

NCI-H3122 = test system: NCI-H3122
In short: as §1

NCI-H596 = test system: NCI-H596
In short: as §1

RERF-LC-KJ = test system: RERF-LC-KJ
In short: as §1

SW 1573 = test system: SW 1573
In short: as §1

SW 900 = test system: SW 900
In short: as §1

With `C=C1C(=O)O[C@@H](CCCCCCCC)[C@@H]1C(=O)O` [C-75] + CC(=O)Nc1cccc(-n2c(=O)n(C3CC3)c(=O)c3c(Nc4ccc(I)cc4F)n(C)c(=O)c(C)c32)c1 [Trametinib] (partner 0.02 µM) the relative viability (ChaGo-K-1; first compound 0.08 µM) was 0.878, the relative viability (ChaGo-K-1; first compound 0.253 µM) was 0.875 and the relative viability (ChaGo-K-1; first compound 0.8 µM) was 0.819. It also gave a relative viability (ChaGo-K-1; first compound 2.53 µM) of 0.538, a relative viability (ChaGo-K-1; first compound 8 µM) of 0.907 and a relative viability (EKVX; first compound 0.08 µM) of 0.344. The relative viability (EKVX; first compound 0.253 µM) was 0.263, the relative viability (EKVX; first compound 0.8 µM) was 0.31 and the relative viability (EKVX; first compound 8 µM) was 0.355. The relative viability (EMC-BAC-2; first compound 0.08 µM) was 0.872, the relative viability (EMC-BAC-2; first compound 0.253 µM) was 0.987 and the relative viability (EMC-BAC-2; first compound 0.8 µM) was 0.853. The relative viability (EMC-BAC-2; first compound 2.53 µM) was 0.803, the relative viability (EMC-BAC-2; first compound 8 µM) was 0.89 and the relative viability (EPLC-272H; first compound 0.08 µM) was 0.311. The relative viability (EPLC-272H; first compound 0.253 µM) was 0.341, the relative viability (EPLC-272H; first compound 0.8 µM) was 0.27 and the relative viability (EPLC-272H; first compound 2.53 µM) was 0.299. For the same compound, the relative viability (EPLC-272H; first compound 8 µM) was 0.363, the relative viability (H3255; first compound 0.08 µM) was 0.66 and the relative viability (H3255; first compound 0.253 µM) was 0.613. It also gave a relative viability (H3255; first compound 0.8 µM) of 0.647, a relative viability (H3255; first compound 2.53 µM) of 0.543 and a relative viability (H3255; first compound 8 µM) of 0.666. It also gave a relative viability (HARA; first compound 0.08 µM) of 0.662, a relative viability (HARA; first compound 0.253 µM) of 0.931 and a relative viability (HARA; first compound 0.8 µM) of 0.766. For the same compound, the relative viability (HARA; first compound 2.53 µM) was 0.587, the relative viability (HARA; first compound 8 µM) was 0.646 and the relative viability (HCC-15; first compound 0.08 µM) was 0.387. It also gave a relative viability (HCC-15; first compound 0.253 µM) of 0.366, a relative viability (HCC-15; first compound 0.8 µM) of 0.375 and a relative viability (HCC-15; first compound 2.53 µM) of 0.33. For the same compound, the relative viability (HCC-15; first compound 8 µM) was 0.426, the relative viability (HCC-827; first compound 0.253 µM) was 0.786 and the relative viability (HCC-827; first compound 0.8 µM) was 0.558. It also gave a relative viability (HCC-827; first compound 8 µM) of 0.55, a relative viability (LC-2-ad; first compound 0.08 µM) of 0.883 and a relative viability (LC-2-ad; first compound 0.253 µM) of 0.954. For the same compound, the relative viability (LC-2-ad; first compound 0.8 µM) was 0.832, the relative viability (LC-2-ad; first compound 2.53 µM) was 0.861 and the relative viability (LC-2-ad; first compound 8 µM) was 0.926. It also gave a relative viability (LCLC-103H; first compound 0.08 µM) of 0.64, a relative viability (LCLC-103H; first compound 0.253 µM) of 0.703 and a relative viability (LCLC-103H; first compound 0.8 µM) of 0.624. It also gave a relative viability (LCLC-103H; first compound 2.53 µM) of 0.547, a relative viability (LCLC-103H; first compound 8 µM) of 0.721 and a relative viability (LK-2; first compound 0.08 µM) of 0.719. The relative viability (LK-2; first compound 0.253 µM) was 1.31, the relative viability (LK-2; first compound 0.8 µM) was 0.822 and the relative viability (LK-2; first compound 2.53 µM) was 0.521. For the same compound, the relative viability (LK-2; first compound 8 µM) was 0.575, the relative viability (NCI-H1648; first compound 0.08 µM) was 0.435 and the relative viability (NCI-H1648; first compound 0.253 µM) was 0.658. The relative viability (NCI-H1648; first compound 0.8 µM) was 0.447, the relative viability (NCI-H1648; first compound 8 µM) was 0.443 and the relative viability (NCI-H1792; first compound 0.08 µM) was 0.474. For the same compound, the relative viability (NCI-H1792; first compound 0.253 µM) was 0.574, the relative viability (NCI-H1792; first compound 0.8 µM) was 0.438 and the relative viability (NCI-H1792; first compound 2.53 µM) was 0.341. It also gave a relative viability (NCI-H1792; first compound 8 µM) of 0.452, a relative viability (NCI-H1793; first compound 0.08 µM) of 0.356 and a relative viability (NCI-H1793; first compound 0.253 µM) of 0.509. It also gave a relative viability (NCI-H1793; first compound 2.53 µM) of 0.356, a relative viability (NCI-H1793; first compound 8 µM) of 0.409 and a relative viability (NCI-H1944; first compound 0.08 µM) of 0.397. The relative viability (NCI-H1944; first compound 0.253 µM) was 0.465, the relative viability (NCI-H1944; first compound 0.8 µM) was 0.361 and the relative viability (NCI-H1944; first compound 2.53 µM) was 0.367. For the same compound, the relative viability (NCI-H1944; first compound 8 µM) was 0.371, the relative viability (NCI-H2170; first compound 0.08 µM) was 0.962 and the relative viability (NCI-H2170; first compound 0.253 µM) was 0.924. For the same compound, the relative viability (NCI-H2170; first compound 0.8 µM) was 0.941, the relative viability (NCI-H2170; first compound 2.53 µM) was 0.849 and the relative viability (NCI-H2170; first compound 8 µM) was 0.85. It also gave a relative viability (NCI-H23; first compound 0.08 µM) of 0.361, a relative viability (NCI-H23; first compound 0.253 µM) of 0.436 and a relative viability (NCI-H23; first compound 0.8 µM) of 0.343. The relative viability (NCI-H23; first compound 2.53 µM) was 0.291, the relative viability (NCI-H23; first compound 8 µM) was 0.321 and the relative viability (NCI-H2405; first compound 0.08 µM) was 0.635. The relative viability (NCI-H2405; first compound 0.253 µM) was 0.47, the relative viability (NCI-H2405; first compound 0.8 µM) was 0.691 and the relative viability (NCI-H2405; first compound 2.53 µM) was 0.575. The relative viability (NCI-H2405; first compound 8 µM) was 0.784, the relative viability (NCI-H3122; first compound 0.08 µM) was 0.261 and the relative viability (NCI-H3122; first compound 0.253 µM) was 0.243. The relative viability (NCI-H3122; first compound 0.8 µM) was 0.218, the relative viability (NCI-H3122; first compound 2.53 µM) was 0.143 and the relative viability (NCI-H3122; first compound 8 µM) was 0.259. The relative viability (NCI-H596; first compound 0.08 µM) was 1.02, the relative viability (NCI-H596; first compound 0.253 µM) was 0.837 and the relative viability (NCI-H596; first compound 0.8 µM) was 0.815. For the same compound, the relative viability (NCI-H596; first compound 2.53 µM) was 0.722, the relative viability (NCI-H596; first compound 8 µM) was 0.744 and the relative viability (RERF-LC-KJ; first compound 0.08 µM) was 0.874. For the same compound, the relative viability (RERF-LC-KJ; first compound 0.253 µM) was 0.945, the relative viability (RERF-LC-KJ; first compound 0.8 µM) was 0.925 and the relative viability (RERF-LC-KJ; first compound 2.53 µM) was 0.918. The relative viability (RERF-LC-KJ; first compound 8 µM) was 0.866, the relative viability (SW 1573; first compound 0.08 µM) was 0.586 and the relative viability (SW 1573; first compound 0.253 µM) was 0.596. For the same compound, the relative viability (SW 1573; first compound 0.8 µM) was 0.547, the relative viability (SW 1573; first compound 2.53 µM) was 0.553 and the relative viability (SW 1573; first compound 8 µM) was 0.557. The relative viability (SW 900; first compound 0.08 µM) was 1.01, the relative viability (SW 900; first compound 0.253 µM) was 0.936 and the relative viability (SW 900; first compound 0.8 µM) was 0.848. It also gave a relative viability (SW 900; first compound 2.53 µM) of 0.71 and a relative viability (SW 900; first compound 8 µM) of 0.829.
